Data reported in patent publication US10721967B2, “Vaporizing devices and methods for delivering a compound using the same” (Altria Client Services LLC, priority 2016, dated 2020).
Where two headings read alike, the source gives them in different places.

How the values were obtained:
[1] = Single-ascending dose pharmacokinetic study: plasma THC after a 3 second inhalation from the vaporizer device; format: in vivo, human; conditions: for AUC(0-inf) / Tmax / Cmax: human, plasma, inhaled, single inhalation, mean ± SD; for Cmax: read-out: Δ^9-THC Cmax
Experimental: A study was conducted to investigate the pharmacokinetics, efficacy, safety, and ease of use of a vaporizer device of the present technology for treating disorders in humans. Volunteers were recruited for participation in the study and met the following inclusion criteria: (a) age >30 and <70 years; (b) no known medical problems; and (c) if applicable, negative urine pregnancy test (β human […] gonadotropin pregnancy test). Exclusion criteria were the presence of (a) significant cardiac or pulmonary disease, (b) history of a psychotic or anxiety disorder, (c) pregnancy, pregnancy attempt or breastfeeding, (d) presence of a neuropathic or non-neuropathic pain disorder, (e) low systolic blood pressure, ([…]) (f) diabetes (g) first degree family history of psychotic or anxiety disorder, (h) history of drug addiction, (i) history of drug misuse, (j) concurrent use the following drugs: rifampicin, rifabutin, carbamazepine, or phenobarbital, primidone, (k) using the following plants: Hypericum perforatum, troglitazone, (l) alcohol consumption up to 12 hours prior to the study, (m) abnormal parameters such as heart rate above 100 BPM, blood pressure below 90 mm Hg (systolic), saturation below 91 percent, (n) recreational Cannabis use up to 72 hours before the study, (o) any chronic use of drugs, and (q) age less than 30 or more than 70.
The participants were divided into four dose related groups each group included 3 volunteers. After 3 successful training inhalations, each participant inhaled 3 seconds of a single dose. Dose groups were 10±0.1 mg, 15±0.1 mg, 20±0.1 mg, 25±0.1 mg of THC.
Blood samples were drawn immediately before and at 2, 3, 4, 10, 30 minutes after inhalation for monitoring of plasma levels of THC and its active metabolite Δ^9 Carboxy-THC. The blood was collected in 13×75 mm purple-top Vacutainer tubes containing EDTA. Samples were kept on ice and centrifuged within 30 minutes. Plasma samples were aliquoted into 3.6-mL polypropylene Nunc cryotubes (Thomas Scientific, NJ, USA), stored frozen at −20° C., and analyzed within 6 weeks. The cannabinoid analysis was performed at Pactox (Pacific Toxicology Laboratories) Labs by multidimensional gas chromatography mass spectrometry method.
The study device was as described above in connection with the figures and designed to vaporize up to 80 doses of processed cannabis fibs, resulting in the pulmonary delivery of compounds. The inhaler consisted of a multi-dose cartridge, indication light, and power switch. The cartridge was preloaded with multiple pre-weighed 10.0±0.1 mg, 15.0±0.1 mg, 20.0±0.1 mg, and 25.0±0.1 mg doses of processed cannabis flos. The vaporization process was segmental and triggered by the volunteer pressing the operating button. The segmental evaporation process is aimed at turning THCA into THC^1 and is done by: (1) stage I—heating the material to 100° C. for 9 seconds; (2) stage II—heating the material to 150° C. for 9 seconds; (3) stage III—heating the material to 190° C. to 200° C. (evaporation temperature) for the 3 seconds of inhalation. The transition to the next dose/inhalation is performed by using a mechanical rotation wheel. The device engages automatic thermal control that ensures a complete, high-efficiency delivery of carmabinoid vapors to the lungs. The device allowed for “single inhalation” dose resolution, instantaneous administration, and required no preprocessing or any subject intervention other than the inhalation itself.
The cannabis flowers used in the study were of the Alaska strain provided by “Tikun Olam.” This strain is a hybrid of 70% sativa and 30% indica strains. This strain consists of 20-22% THC and 0% CBD. The processed cannabis flowers used in this study were tested for THC by modified gas-chromatography method without derivatization 1.8 resulting in Δ^9-THC content of 20.08%. The flowers were loaded into the inhaler so as to retain the natural cannabis compounds in. their raw form. […]

[2] = Blood pressure, pulse rate and oxygen saturation after inhalation; format: in vivo, human; conditions: for DBP (diastolic blood pressure) / HR (heart rate) / SBP (systolic blood pressure) / SO2 (blood oxygen saturation): mean value
Experimental: (§1) Blood pressure, pulse rate, and oxygen saturation were also recorded at baseline, 30, 60, 90, and 120 minutes post inhalation. A cognitive test was conducted using the Short Blessed Test prior to the experiment at 30, 60 minutes after inhalation and at the end of the experiment.
(§2) The primary outcome of the study was to characterize the inter-individual variability of Δ^9-THC during the absorption phase. The secondary outcome included (a) monitoring adverse effects, (b) blood pressure, and heart rate; and (c) monitoring the response of single-ascending dose with the use of the study device. In addition, the influence of the use of the trial device on the cognitive status of the subject was assessed. A Short Blessed Test cognitive test^19 was used for the purpose of the trial.

[3] = intravenous THC administration, cited from earlier work
[4] = Short Blessed Test cognitive status evaluation; format: in vivo, human; conditions: for SET 0 min (Short Blessed Test score): 0 min (prior to inhalation); for SET 0 min (Short Blessed Test score) / SET 30 min (Short Blessed Test score) / SET 120 min (Short Blessed Test score): mean; for SET 30 min (Short Blessed Test score): 30 min after inhalation
Experimental: as §1, §2
The Short Blessed Test, a six-item test, was used as a diagnostic tool enabling the cognitive status evaluation of the volunteers. Each item was scored and total scores were calculated on the following cut off points: Normal or minimally impaired: 0-8, Moderately impaired: 9-19, Severely impaired: 20-33.

[5] = ascending doses 10-25 mg, inhalation

CCCCCc1cc(O)c2c(c1)OC(C)(C)[C@@H]1CCC(C)=C[C@@H]21 [THC, tetrahydrocannabinol]
change in time needed to reach maximum concentration with ascending doses [1, 5]: no significant change | change of AUC with ascending doses [1, 5]: same linear increase | change of maximum concentration with ascending doses [1, 5]: linear increase | AUC(0-inf) ([1]; 0.1 mg, Group IV, 25 ± 0.1 mg): 16.2 ng·h/mL | Tmax ([1]; 0.1 mg, Group IV, 25 ± 0.1 mg): 3 min | Cmax ([1]; 0.1 mg, Group IV, 25 ± 0.1 mg): 88.6 ± 14.8 ng/mL | AUC(0-inf) ([1]; Group I, 10 ± 0.1 mg): 7.36 ng·h/mL | Tmax ([1]; Group I, 10 ± 0.1 mg): 3.67 min | Cmax ([1]; Group I, 10 ± 0.1 mg): 35.4 ± 5.97 ng/mL | AUC(0-inf) ([1]; Group II, 15 ± 0.1 mg): 10.4 ng·h/mL | Tmax ([1]; Group II, 15 ± 0.1 mg): 3.33 min | Cmax ([1]; Group II, 15 ± 0.1 mg): 51.5 ± 13.8 ng/mL | AUC(0-inf) ([1]; Group III, 20 ± 0.1 mg): 11.6 ng·h/mL | Tmax ([1]; Group III, 20 ± 0.1 mg): 2.67 min | Cmax ([1]; Group III, 20 ± 0.1 mg): 72.4 ± 15.9 ng/mL | DBP (diastolic blood pressure) ([2]; 10 mg dose group): 69.46 ± 7.86 mmHg | HR (heart rate) ([2]; 10 mg dose group): 71.66 ± 10.14 | SBP (systolic blood pressure) ([2]; 10 mg dose group): 113.4 ± 10.23 mmHg | SO2 (blood oxygen saturation) ([2]; 10 mg dose group): 99.93 ± 0.25% | DBP (diastolic blood pressure) ([2]; 15 mg dose group): 63.85 ± 9.78 mmHg | HR (heart rate) ([2]; 15 mg dose group): 79 ± 13.37 | SBP (systolic blood pressure) ([2]; 15 mg dose group): 114.93 ± 6.88 mmHg | SO2 (blood oxygen saturation) ([2]; 15 mg dose group): 100% | DBP (diastolic blood pressure) ([2]; 20 mg dose group): 71.78 ± 14.95 mmHg | HR (heart rate) ([2]; 20 mg dose group): 68.35 ± 5.83 | SBP (systolic blood pressure) ([2]; 20 mg dose group): 120.14 ± 28.03 mmHg | SO2 (blood oxygen saturation) ([2]; 20 mg dose group): 99.92 ± 0.26% | DBP (diastolic blood pressure) ([2]; 25 mg dose group): 80.57 ± 8.92 mmHg | HR (heart rate) ([2]; 25 mg dose group): 77.57 ± 17.74 | SBP (systolic blood pressure) ([2]; 25 mg dose group): 130 ± 16.62 mmHg | SO2 (blood oxygen saturation) ([2]; 25 mg dose group): 99.42 ± 0.9% | change in blood pressure, heart rate, or blood oxygen saturation ([2]; during the time frame of the study, all dose groups): no significant change | Cmax of Δ^9-THC ([3]; Reference 1): 43.8 ng/mL | Cmax of Δ^9-THC ([3]; Reference 2): 32.8 ng/mL | Cmax of Δ^9-THC ([3]; Reference 3): 23.8 ng/mL | SET 0 min (Short Blessed Test score) ([4]; 10 mg dose group): 0.66 ± 0.94 | SET 30 min (Short Blessed Test score) ([4]; 10 mg dose group): 2.33 ± 3.29 | SET 120 min (Short Blessed Test score) ([4]; 10 mg dose group): 2.66 ± 0.47 | SET 0 min (Short Blessed Test score) ([4]; 15 mg dose group): 0 | SET 30 min (Short Blessed Test score) ([4]; 15 mg dose group): 1.33 ± 1.88 | SET 120 min (Short Blessed Test score) ([4]; 15 mg dose group): 3 ± 0.81 | SET 0 min (Short Blessed Test score) ([4]; 20 mg dose group): 2 ± 1.63 | SET 30 min (Short Blessed Test score) ([4]; 20 mg dose group): 0.66 ± 0.94 | SET 120 min (Short Blessed Test score) ([4]; 20 mg dose group): 0.66 ± 0.94 | SET 0 min (Short Blessed Test score) ([4]; 25 mg dose group): 2 ± 2.82 | SET 30 min (Short Blessed Test score) ([4]; 25 mg dose group): 0 | SET 120 min (Short Blessed Test score) ([4]; 25 mg dose group): 0 | cognitive impairment (Short Blessed Test) ([4]; all volunteers, 0-8 normal or minimally impaired): minimal cognitive impairment
